{"source": "patent US20250041286A1", "about": "“CANCER TREATMENT USING KETOTIFEN IN COMBINATION WITH A CHECKPOINT INHIBITOR” (Materia Therapeutics Inc., priority 2021, published 2025)", "key": {"[1]": {"tested_on": "K7M2wt tumors", "assay": "Collagen staining with Picrosirius red", "assay_type": "in vivo, mouse", "settings": "10 mg/kg ketotifen", "procedure": "(§1) As tissue stiffness is caused in part by the degree of collagen expression by cancer associated fibroblasts (CAFs) and crosslinking, the intratumoral collagen levels were evaluated by histological staining using Picrosirius red.\n(§2) Briefly, tumors were removed from four mice, washed twice in 1×PBS for 10 min, and incubated with 4% PFA overnight at 4° C. The fixative was aspirated, and samples were washed twice in 1×PBS for 10 min. Tissue samples were dehydrated in successive ethanol steps and xylene followed by paraffin embedding. Serial sections ([…]) of paraffin-embedded tissues were produced using the microtome (Accu-Cut SRM 200 Rotary Microtome, SAKURA), flattened out into water, and allowed to dry overnight at 37° C. Sections were then deparaffinized and rehydrated as routinely processed for histology. Following deparaffinization and rehydration, tissue sections were submerged in Picrosirius red stain for 1 hour at room temperature. Next, tissue sections were rinsed in two changes of acetic acid, followed by two changes of absolute ethanol and finally, mounted with DPX mountant for histology (Sigma). Collagen fibers were stained in red while the remaining tissue was pale yellow."}, "[2]": {"tested_on": "MCA205 tumors", "assay": "Collagen staining with Picrosirius red", "assay_type": "in vivo, mouse", "settings": "10 mg/kg ketotifen", "procedure": "as §1, §2"}}}
{"smiles": "CN1CCC(=C2c3ccccc3CC(=O)c3sccc32)CC1", "note": "[ketotifen]", "values": [{"measurement": "collagen deposition (Picrosirius red)", "setting": "[1]", "value": "significant reduction"}, {"measurement": "collagen deposition (Picrosirius red)", "setting": "[2]", "value": "significant reduction"}]}
